The numbers were not newly measured in paper PMC5594551, “Heterogeneous drug penetrance of veliparib and carboplatin measured in triple negative breast tumors” (Breast Cancer Research : BCR, 2017), which cites them from elsewhere.

For one series, the system named is MDA-MB-436. The following applies: MDA-MB-436, BRCA1-mutated; ref [24]; cited from earlier work.
The next series concerns HCC70. As to conditions: ref [24]; cited from earlier work.

As for `O=C(c1cc(Cc2n[nH]c(=O)c3ccccc23)ccc1F)N1CCN(C(=O)C2CC2)CC1` [olaparib], the Sensitivity in vitro result was “sensitivity” in the series on MDA-MB-436 and “sensitive” in the series with HCC70.
